Molecules are shown by their SMILES.

Results on three molecules are retold here after patent US20210220494A1, “COMPOSITIONS AND METHODS FOR TARGETED PARTICLE PENETRATION, DISTRIBUTION, AND RESPONSE IN MALIGNANT BRAIN TUMORS” (Memorial Sloan Kettering Cancer Center, priority 2016, published 2021).

The test system of one series is macrophages. The conditions noted are these: cited from earlier work.
For series [1] the following is noted: cited from earlier work.
Another series relates to ECLC26 flank tumor. The conditions noted are these: ECLC26 flank tumors, multi-dose, caliper measurements.
Another series has as its system NSCLC CNS metastases. The conditions noted are these: pulsatile high-dose, cited from earlier work.

Experimental for ECLC26 flank tumor: Tumor volume was measured using caliper measurements of the maximal dimensions of the tumor daily.
Nude mice were implanted with 2 million ECLC26 cells. Mice bearing tumors were treated by i.v. of 200 μL saline or 15 μM Gef-NDC for 2 doses of Gavage with 15 mg/ml Gefitinib, 10 μL/g for 10 days.

In the case of `CNC(=O)c1cc(Oc2ccc3nc(N[C@@H]4CCCC[C@H]4O)sc3c2)ccn1` [BLZ945], in the series with macrophages, the “expression of M2 polarization markers in TAMs” value is on record as “decreased expression of M2 polarization markers” and the “phagocytic activity of macrophages” value was “upregulated”.

As to `COc1cc2ncnc(Nc3ccc(F)c(Cl)c3)c2cc1OCCCN1CCOCC1` [Gefitinib, gefitinib], the protein binding result in series [1] is “highly protein bound”. Moreover, the “tumor volume over time” value with ECLC26 flank tumor is on record as “steady decrease in tumor volume”.

With `C#Cc1cccc(Nc2ncnc3cc(OCCOC)c(OCCOC)cc23)c1` [erlotinib], in the series on NSCLC CNS metastases (3 patients), the “response of CNS metastases” value was “the response is unpredictable, even at high dose”. For the same molecule, the CNS penetration result with NSCLC CNS metastases (patients) is “improves CNS penetration for NSCLC metastases”.
